Data from US20130023573A1, “ALPHA-2 […] TREATING VISUAL DISORDERS MEDIATED BY CENTRAL VISUAL P[…] THE EYE” (priority 2011, published 2013).

Columns and labels:
[1] = rats, after oral dose of brimonidine tartrate (Acheampong et al., Xenobiotica 2007); cited from earlier work
rat visual cortex slices = experiment: Long-term potentiation in visual cortex slice; assay type: cell-based; settings: LTP at 30 min after induction; for threshold dose for dose-dependent facilitation of LTP: rat visual cortex slices, drug infused 20 min before theta burst stimulation
Experimental: Following decapitation of the anesthetized rat, the brain was rapidly removed and immersed in ice-cold artificial cerebrospinal fluid (ACSF) containing (in mM) NaCl 124, KCl 3, KH2PO4 1.25, CaCl2 3.4, MgSO4 2.5, NaHCO3 26, and D-glucose 10. A block of visual cortex was created by removing the frontal ⅔ portion of the brain and the cerebellum. Coronal visual cortex slices of 350 μm thick were prepared from young adult (200-300 g) male Sprague-Dawley rats using a vibratome (VT 1000 S; Leica). The slices were maintained in an interface recording chamber perfused with preheated ACSF. Slices were continuously perfused with this solution at a rate of 1.00-1.50 ml/min while the surface of the slices was exposed to warm, humidified […] and maintained at 31±1° C. Visual cortex slices were allowed to recover for 1 hr before recording began. A single stimulating and recording electrode was placed in layer IV and III, respectively, to generate and record field excitatory postsynaptic potentials (fEPSPs). Pulses were administered at 0.05 Hz using a current that produced a fEPSP that is 50% of the maximum spike free response. An input-output (IO) curve was done to determine the stimulation needed to achieve a stable baseline. Following a 15 min stable baseline recording period, a train of 5 theta bursts (each burst containing four pulses at 100 Hz with an inter-burst interval of 200 ms) was delivered to the slice. This was repeated 2 additional times with a 1 minute inter-train interval, and the level of LTP was recorded for at least 30 min. Changes in amplitude of the synaptic response were used to measure the extent of LTP, since the amplitude was determined to be the more consistent parameter than the slope of the response. Control LTP values were obtained from slices not treated with drug. Different slices were used to study drug effects on LTP. Compound 4-bromo-N-(imidazolidin-2-ylidene)-1H-benzimidazol-5-amine or (S)-(3-(1-(1H-imidazol-4-yl)ethyl)-2-methylphenyl)methanol) was infused after 15 min baseline recording for a duration of 20 minutes followed by LTP induction. Drug washout began 5 minutes after tetanization. Recording of the amplitude before, during, and after drug infusion was continuously done at 0.05 Hz. Statistical comparisons were done with LTP values recorded at 30 minutes after induction for drug-treated vs control slices (non-paired t-test).
In brief, brain slices from primary visual cortex were prepared and recording of evoked field responses was done as described in the ‘general procedure’ section. A typical LTP run began with establishing a stable baseline, then treatment for 20 min with 4-bromo-N-(imidazolidin-2-ylidene)-1H-benzimidazol-5-amine followed by LTP induction via brief high-frequency theta burst stimulation (TBS) and drug washout 5 min after TBS, and ended after monitoring the amount of LTP for at least 30 min. Control LTP was measured in a group of separate slices within the same chamber infused with aCSF. The amount of LTP present at 30 min after induction was used to compare drug effects at different concentrations relative to the control group. […] The percent increase in LTP was shown relative to the pre-LTP baseline for each condition.
The percent increase in LTP was shown relative to the pre-LTP baseline for each condition.

Structure (SMILES) | amount found in urine [1] | LTP compared to control slices (rat visual cortex slices; 3 nM) | LTP compared to control slices (rat visual cortex slices; 30 nM) | LTP compared to control slices (rat visual cortex slices; 300 nM) | threshold dose for dose-dependent facilitation of LTP (rat visual cortex slices) [nM] | LTP compared to control slices (rat visual cortex slices; 100 nM)
Brc1c(N=C2NCCN2)ccc2[nH]cnc12 [4-bromo-N-(imidazolidin-2-ylidene)-1H-benzimidazol-5-amine] | trace amounts | significantly facilitated | significantly facilitated | significantly facilitated | 3 | 
Cc1c(CO)cccc1[C@H](C)c1c[nH]cn1 [(S)-(3-(1-(1H-imidazol-4-yl)ethyl)-2-methylphenyl)methanol] |  |  |  | significantly facilitated | 100 | significantly facilitated
